This passage reports IC50 results from US11066413B2, “Aminopyrimidine five-membered heterocyclic compound, and intermediate, preparation method, pharmaceutical composition and application thereof” (GUANGZHOU MAXINOVEL PHARMACEUTICALS CO., LTD., priority 2017, dated 2021).

The experiment concerns the target hA2A receptor (Homo sapiens (Human), UniProt P29274). Description: binding affinity IC50 to hA2A receptor ([3H]-CGS 21680 filter binding, Effect Embodiment 2). The settings on record: A2A membrane, [3H]-CGS 21680 (final 25 nM), 90 minutes at 25° C. As for the experimental part: Evaluation experiment of the binding affinity IC50 of the compounds 1-61 to hA2A receptor
40 uL of ULTIMA GOLD scintillation fluid was added to each well and the CPM (count per minute) value was read by TopCount.

What is called IC50 is the concentration that gives 50% inhibition.

Chain of hA2A receptor (P29274 whole entry): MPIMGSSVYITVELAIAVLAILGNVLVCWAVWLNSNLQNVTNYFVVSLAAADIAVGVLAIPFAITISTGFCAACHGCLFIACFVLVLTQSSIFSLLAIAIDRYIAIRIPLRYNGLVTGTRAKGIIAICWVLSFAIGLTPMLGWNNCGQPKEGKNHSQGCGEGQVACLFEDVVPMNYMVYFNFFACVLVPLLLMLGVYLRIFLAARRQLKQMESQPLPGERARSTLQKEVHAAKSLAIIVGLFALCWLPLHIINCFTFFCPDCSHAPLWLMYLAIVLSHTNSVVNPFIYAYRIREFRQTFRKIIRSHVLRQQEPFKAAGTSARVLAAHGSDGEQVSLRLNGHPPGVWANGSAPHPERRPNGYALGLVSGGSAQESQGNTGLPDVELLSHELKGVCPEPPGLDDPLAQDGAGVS

“2-amino-9-((2-fluorophenyl)methyl)-6-(furan-2-yl)-7-methyl-8,9-dihydro-7H-purinyl-8-one [Compound 40]” registered an IC50 of 106 nM.

Compound `Nc1nc(-c2ccco2)c2c(n1)C(Cc1ccccc1Cl)OC2=O` (centres unmarked) [Compound 11, 2-amino-7-(2-chlorobenzyl)-4-(furan-2-yl)-5H,7H-furo[3,4-d]pyrimidin-5-one] had an IC50 of 32.1 nM.

Consider `Nc1nc(-c2ccco2)c2c(n1)C(Cc1ccc(Cl)cc1F)OC2=O` (centres unmarked) [Compound 2, 2-amino-7-(4-chloro-2-fluorobenzyl)-4-(furan-2-yl)-5H,7H-furo[3,4-d]pyrimidin-5-one], for which the IC50 was 39.3 nM.

Turning to `Nc1nc(-c2ccco2)c2c(n1)C(Cc1ccc(F)cc1F)OC2=O` (centres unmarked) [Compound 8, 2-amino-7-(2,4-difluorobenzyl)-4-(furan-2-yl)-5H,7H-furo[3,4-d]pyrimidin-5-one], the IC50 was 10.7 nM.

`Nc1nc(-c2ccco2)c2c(n1)C(Cc1ccc(OC(F)(F)F)cc1)OC2=O` (centres unmarked) [Compound 21, 2-amino-7-((4-(trifluoromethoxyl)phenyl)methyl)-4-(furan-2-yl)-5H,7H-furo[3,4-d]pyrimidin-5-one] showed an IC50 of 106 nM. This IC50 lies about 9.9-fold higher than the previous one.

With `Cc1ccc(-c2nc(N)nc3c2C(=O)OC3Cc2cc(Cl)ccc2F)o1` (centres unmarked) [Compound 30, 2-amino-7-((5-chloro-2-fluorophenyl)methyl)-4-(5-methylfuran-2-yl)-5H,7H-furo[3,4-d]pyrimidin-5-one], the IC50 came to 94 nM.

Compound `Nc1nc(-c2ccco2)c2c(n1)C(Cc1ccccc1)OC2=O` (centres unmarked) [Compound 5, 2-amino-7-benzyl-4-(furan-2-yl)-5H,7H-furo[3,4-d]pyrimidin-5-one] returned an IC50 of 40 nM.

`CN1C(=O)c2c(-c3ccco3)nc(N)nc2C1Cc1ccc(F)cc1F` (centres unmarked) [Compound 47, 2-amino-7-((2,4-difluorophenyl)methyl)-4-(furan-2-yl)-6-methyl-5H,6H,7H-pyrrolo[3,4-d]pyrimidin-5-one] displayed an IC50 of 16.4 nM.

`CN1C(=O)c2c(nc(N)nc2-c2ccco2)C1=Cc1ccccc1F` [Compound 38, 2-amino-7-((2-fluorophenyl)methylene)-4-(furan-2-yl)-6-methyl-5H,6H,7H-pyrrolo[3,4-d]pyrimidin-5-one] showed an IC50 of 6.1 nM. Against the preceding compound, the IC50 is about 2.7-fold lower.

`NC(=O)c1ccc(CC2OC(=O)c3c(-c4ccco4)nc(N)nc32)cc1` (centres unmarked) [Compound 14, 4-((2-amino-4-(furan-2-yl)-5-oxo-5H,7H-furo[3,4-d]pyrimidin-7-yl)methyl)benzamide] showed an IC50 of 218 nM. This IC50 lies about 36-fold higher than the previous one.

`Nc1nc(-c2ccco2)c2c(n1)C(Cc1ccccc1OC(F)(F)F)OC2=O` (centres unmarked) [Compound 23, 2-amino-7-((2-(trifluoromethoxyl)phenyl)methyl)-4-(furan-2-yl)-5H,7H-furo[3,4-d]pyrimidin-5-one] had an IC50 of 3.9 nM.

`Cc1ccc(-c2nc(N)nc3c2C(=O)OC3Cc2ccc(F)cc2C(F)(F)F)o1` (centres unmarked) [Compound 32, 2-amino-7-((4-fluoro-2-(trifluoromethyl)phenyl)methyl)-4-(5-methylfuran-2-yl)-5H,7H-furo[3,4-d]pyrimidin-5-one]: the IC50 came out at 19.9 nM.

`Cc1ccccc1CC1OC(=O)c2c(-c3ccco3)nc(N)nc21` (centres unmarked) [Compound 19, 2-amino-7-((2-methylphenyl)methyl)-4-(furan-2-yl)-5H,7H-furo[3,4-d]pyrimidin-5-one] displayed an IC50 of 31.1 nM.

`Cc1ccc(-c2nc(N)nc3c2C(=O)N(C)C3=Cc2ccc(F)cc2F)o1` [Compound 48, 2-amino-7-((2,4-difluorophenyl)methylene)-4-(5-methylfuran-2-yl)-6-methyl-5H,6H,7H-pyrrolo[3,4-d]pyrimidin-5-one] came in with an IC50 of 13.2 nM. Against the preceding compound, the IC50 is about 2.4-fold lower.

`N#Cc1ccc(CC2OC(=O)c3c(-c4ccco4)nc(N)nc32)cc1F` (centres unmarked) [Compound 3] showed an IC50 of 159 nM.

On to `Cc1ccc(-c2nc(N)nc3c2C(=O)N(C)C3=Cc2ccc(F)cc2C(F)(F)F)o1` [Compound 56, 2-amino-7-((2-(trifluoromethyl)-4-fluorophenyl)methylene)-4-(5-methylfuran-2-yl)-6-methyl-5H,6H,7H-pyrrolo[3,4-d]pyrimidin-5-one], for which the IC50 turned out to be 3.4 nM.

Turning to `Cc1ccc(-c2nc(N)nc3c2C(=O)OC3Cc2ccccc2C(F)(F)F)o1` (centres unmarked) [Compound 28, 2-amino-7-((2-(trifluoromethyl)phenyl)methyl)-4-(5-methylfuran-2-yl)-5H,7H-furo[3,4-d]pyrimidin-5-one], the IC50 was 11.2 nM.

Take `Cc1ccc(-c2nc(N)nc3c2n(C)c(=O)n3-c2ccccc2C(F)(F)F)o1` [Compound 61, 2-amino-7-methyl-6-(5-methylfuran-2-yl)-9-(2-(trifluoromethyl)phenyl)-8(9H)-carbonyl-7H-purine]: the IC50 was 213 nM.

In the case of `Cc1ccc(-c2nc(N)nc3c2C(=O)OC3Cc2c(F)cccc2Cl)o1` (centres unmarked) [Compound 31, 2-amino-7-((6-chloro-2-fluorophenyl)methyl)-4-(5-methylfuran-2-yl)-5H,7H-furo[3,4-d]pyrimidin-5-one], the IC50 came out at 38.4 nM.

Take `Nc1nc(-c2ccco2)c2c(n1)C(Cc1ccc(C(F)(F)F)cc1)OC2=O` (centres unmarked) [Compound 15]: the IC50 was 274 nM.

Turning to `Cc1ccc(-c2nc(N)nc3c2C(=O)N(C)C3Cc2ccccc2OC(F)(F)F)o1` (centres unmarked) [Compound 53, 2-amino-7-((2-(trifluoromethoxyl)phenyl)methyl)-4-(5-methylfuran-2-yl)-6-methyl-5H,6H,7H-pyrrolo[3,4-d]pyrimidin-5-one], the IC50 amounted to 56.2 nM.

Compound `CN1C(=O)c2c(-c3ccco3)nc(N)nc2C1Cc1ccccc1F` (centres unmarked) [Compound 44, 2-amino-7-((2-fluorophenyl)methyl)-4-(furan-2-yl)-6-methyl-5H,6H,7H-pyrrolo[3,4-d]pyrimidin-5-one] displayed an IC50 of 64.6 nM.

Consider `Nc1nc(-c2ccco2)c2c(n1)[C@@H](Cc1ccccc1)OC2` [Compound 6, (R)-7-benzyl-4-(furan-2-yl)-5,7-dihydrofuro[3,4-d]pyrimidin-2-amine], for which the half-maximal inhibitory concentration (IC50) was found to be 157 nM.

Consider `Nc1nc(-c2ccco2)c2c(n1)C(Cc1ccccc1C(F)(F)F)OC2=O` (centres unmarked) [Compound 16, 2-amino-4-(furan-2-yl)-7-((2-(trifluoromethyl)phenyl)methyl)-5H,7H-furo[3,4-d]pyrimidin-5-one], for which the IC50 is 15.7 nM.

As for `Cc1ccc(-c2nc(N)nc3c2C(=O)N(C)C3Cc2ccccc2C(F)(F)F)o1` (centres unmarked) [Compound 54, 2-amino-7-((2-(trifluoromethyl)phenyl)methyl)-4-(5-methylfuran-2-yl)-6-methyl-5H,6H,7H-pyrrolo[3,4-d]pyrimidin-5-one], the IC50 stood at 34.7 nM.

`Cc1ccc(-c2nc(N)nc3c2C(=O)OC3Cc2ccccc2OC(F)(F)F)o1` (centres unmarked) [Compound 36, 2-amino-7-((2-(trifluoromethoxyl)phenyl)methyl)-4-(5-methylfuran-2-yl)-5H,7H-furo[3,4-d]pyrimidin-5-one]: the IC50 is 28.1 nM.

Consider `Cc1ccc(-c2nc(N)nc3c2C(=O)OC3Cc2ccccc2OC(F)F)o1` (centres unmarked) [Compound 39, 2-amino-7-((2-(difluoromethoxyl)phenyl)methyl)-4-(5-methylfuran-2-yl)-5H,7H-furo[3,4-d]pyrimidin-5-one], for which the IC50 was found to be 128 nM. Against the preceding compound, the IC50 is about 4.6-fold higher.

`Nc1nc(-c2ccco2)c2c(n1)C(Cc1ccc(Cl)c(F)c1)OC2=O` (centres unmarked) [Compound 12, 2-amino-7-(4-chloro-3-fluorobenzyl)-4-(furan-2-yl)-5H,7H-furo[3,4-d]pyrimidin-5-one] returned an IC50 of 99.8 nM.

In the case of `Nc1nc(-c2ccco2)c2c(n1)C(Cc1c(F)cccc1F)OC2=O` (centres unmarked) [Compound 22, 2-amino-7-((2,6-difluorophenyl)methyl)-4-(furan-2-yl)-5H,7H-furo[3,4-d]pyrimidin-5-one], the IC50 stood at 47.3 nM. Compared with the last compound, the IC50 is about 2.1-fold lower.

`Nc1nc(-c2ccco2)c2c(n1)C(Cc1ccc(F)cc1Cl)OC2=O` (centres unmarked) [Compound 10, 2-amino-7-(2-chloro-4-fluorobenzyl)-4-(furan-2-yl)-5H,7H-furo[3,4-d]pyrimidin-5-one] returned an IC50 of 114 nM. This IC50 lies about 2.4-fold higher than the previous one.

In the case of `CS(=O)(=O)c1ccc(CC2OC(=O)c3c(-c4ccco4)nc(N)nc32)cc1` (centres unmarked) [Compound 13, 2-amino-4-(furan-2-yl)-7-(4-methylsulfonylbenzyl)-5H,7H-furo[3,4-d]pyrimidin-5-one], the IC50 was 152 nM. The IC50 values of the last two compounds are within 1.5-fold of each other.

In turn, `CN1C(=O)c2c(-c3ccco3)nc(N)nc2C1Cc1ccccc1OC(F)(F)F` (centres unmarked) [Compound 45, 2-amino-7-((2-trifluoromethoxylphenyl)methyl)-4-(furan-2-yl)-6-methyl-5H,6H,7H-pyrrolo[3,4-d]pyrimidin-5-one] gave an IC50 of 11.6 nM.

Regarding `Cc1ccc(-c2nc(N)nc3c2C(=O)N(C)C3Cc2ccc(F)cc2F)o1` (centres unmarked) [Compound 49, 2-amino-7-((2,4-difluorophenyl)methyl)-4-(5-methylfuran-2-yl)-6-methyl-5H,6H,7H-pyrrolo[3,4-d]pyrimidin-5-one], the IC50 was found to be 32.1 nM.

With `Nc1nc(-c2ccco2)c2c(n1)C(Cc1c(F)cccc1Cl)OC2=O` (centres unmarked) [Compound 17, 2-amino-7-((2-chloro-6-fluorophenyl)methyl)-4-(furan-2-yl)-5H,7H-furo[3,4-d]pyrimidin-5-one], the IC50 turned out to be 29.2 nM. This IC50 and that of the compound before are within 1.5-fold of each other.

`Cc1ccc(-c2nc(N)nc3c2C(=O)OC3Cc2ccc(F)cc2F)o1` (centres unmarked) [Compound 42, 2-amino-7-((2,4-difluorophenyl)methyl)-7-deuterium-4-(5-methylfuran-2-yl)-5H,7H-furo[3,4-d]pyrimidin-5-one] registered an IC50 of 87.4 nM.

On to `Nc1nc(-c2ccco2)c2c(n1)C(Cc1cccc(Cl)c1F)OC2=O` (centres unmarked) [Compound 18, 2-amino-7-((3-chloro-2-fluorophenyl)methyl)-4-(furan-2-yl)-5H,7H-furo[3,4-d]pyrimidin-5-one], for which the IC50 was determined as 73.7 nM.

`Cc1ccc(-c2nc(N)nc3c2C(=O)OC3Cc2cc(F)ccc2F)o1` (centres unmarked) [Compound 29, 2-amino-7-((2,5-difluorophenyl)methyl)-4-(5-methylfuran-2-yl)-5H,7H-furo[3,4-d]pyrimidin-5-one] came in with an IC50 of 252 nM.

Consider `CN1C(=O)c2c(nc(N)nc2-c2ccco2)C1=Cc1ccc(F)cc1F` [Compound 46, 2-amino-7-((2,4-difluorophenyl)methylene)-4-(furan-2-yl)-6-methyl-5H,6H,7H-pyrrolo[3,4-d]pyrimidin-5-one], for which the IC50 worked out at 8.7 nM.
